US10028933B2, “Compositions and methods for inhibiting the growth of multi-drug resistant microbes” (priority 2015, dated 2018)
Entries after “also recorded” stand apart in the source; their conditions may differ.

Tests used:
[1] = test system: Salmonella Typhimurium; conditions: cited from earlier work
[2] = test system: Francisella tularensis; conditions: cited from earlier work
[3] = long term oral exposures up to 33 weeks; cited from earlier work
[4] = preclinical studies; cited from earlier work
[5] = test system: P. aeruginosa; conditions: AR-13 alone
[6] = test system: B. cenocepacia; assay: direct bacterial killing assay in media alone (optical absorbance density over 24 hours)
[7] = test system: P. aeruginosa; assay: direct bacterial killing assay in media alone of CF clinical P. aeruginosa isolate (24 hours); conditions: media devoid of human macrophages or neutrophils, n=3
[8] = test system: B. cenocepacia strain k56-2; conditions: 5 μM AR-13 alone
[9] = test system: MRSA; assay: bacterial killing assay of CF clinical MRSA isolate in media (optical absorbance density, 24 hours); format: cell-based
[10] = test system: human CF and non-CF MDMs; assay: macrophage viability assay at 24 h

Row | SMILES | antibacterial activity against intracellular Salmonella Typhimurium in macrophages [1] | antibacterial activity against intracellular Francisella tularensis in macrophages [2] | safety profile in phase I study [3] | accumulation in tissues relative to blood level concentrations [4] | blood brain barrier penetration [4] | reduction in P. aeruginosa burden in CF neutrophils ([5]; CF neutrophils) | reduction in P. aeruginosa burden in non-CF neutrophils ([5]; non-CF neutrophils) | reduction of optical absorbance density of B. cenocepacia compared to no treatment ([6]; AR-13 alone vs B. cenocepacia alone, media, 24 hour period, n=3) | direct killing / bacterial growth of B. cenocepacia in media alone ([6]; media alone, 24 hours, AR-13 5 μM) | direct killing of P. aeruginosa in media [7] | reduction in B. cenocepacia burden in infected CF and non-CF macrophages [8] | killing of MRSA in media ([9]; 24 hours, media) | reduction of optical absorbance density of MRSA compared to no treatment ([9]; CF clinical MRSA isolate, 24 hour period, n=3) | AR-13 concentration of greatest efficacy against MRSA (dose titration) ([9]; dose titration 5, 2.5, 1.25 μM, 24 hours, n=3) | AR-13 concentrations tolerated by CF and non-CF macrophages and neutrophils ([10]; CF and non-CF macrophages and neutrophils) | macrophage viability ([10]; human CF and non-CF MDMs, uninfected or infected with B. cenocepacia, 24 h) | AR-13 concentrations resulting in increased toxicity ([10]; uninfected MDMs)
1 | NCC(=O)Nc1ccc(-n2nc(C(F)(F)F)cc2-c2ccc3c(ccc4ccccc43)c2)cc1 [AR-12] | antibacterial activity | antibacterial activity | acceptable safety profile | exceeding the blood level concentrations by several fold | rapid blood brain barrier penetration |  |  |  |  |  |  |  |  |  |  |  | 
2 | NS(=O)(=O)Nc1ccc(-n2nc(C(F)(F)F)cc2-c2ccc3c(ccc4ccccc43)c2)cc1 [AR-13, N-{4-[5-(Phenanthren-2-yl)-3-(trifluoromethyl)-1H-pyrazol-1-yl]phenyl}sulfuric diamide] |  |  |  |  |  | 70% | 66% | about 1.3 fold | significant reduction in bacterial growth; also recorded: direct killing effect | did not demonstrate direct killing; also recorded: did not enhance bacterial killing in media; also recorded: no direct effect | 23% | bacterial optical density increases as the dose of AR-13 decreases | about 1.3 fold | 5 µM | up to 10 μM | no significant differences in cell viability; also recorded: does not impact macrophage viability | above 10 μM
